{
  "source": "paper PMC2868067",
  "about": "(Molecular cancer therapeutics, 2010)",
  "test_system": "kinases in the Src family",
  "details": "read-out: apparent IC50, Srctide; multiplexed, treated K-562 lysates (Figure 6A)",
  "data": [
    {"smiles": "Cc1nc(Nc2ncc(C(=O)Nc3c(C)cccc3Cl)s2)cc(N2CCN(CCO)CC2)n1", "note": "[dasatinib, N-(2-chloro-6-methyl-phenyl)-2-(6-(4-(2-hydroxyethyl)-piperazin-1-yl)-2-methylpyrimidin-4-ylamino)thiazole-5-carboxamide]", "values": [
      {"measurement": "IC50", "result": 1.1, "unit": "nM"}
    ]}
  ]
}
